Assay: Oxidation stability of QH crystals on storage at 40° C. and 75% RH (HPLC of reduced and oxidized coenzyme Q10)
Type: physicochemical
Details: for Relative QH ratio: QH ratio before storage = 100; for Oxidizing rate: crystal stored at 40° C. and 75% RH for approximately 1 month, decrease in relative QH ratio divided by days of storage
Procedure: The QH crystals prepared in Examples 1 to 3 and Comparative Examples 1 and 2 above were stored at 40° C. and 75% RH in a thermostatic chamber for approximately 1 month. Before and after the storage, the reduced coenzyme Q10 content and the oxidized coenzyme Q10 content of the crystal were measured by HPLC (high performance liquid chromatography). On the basis of the measurement results, the below-described QH ratio, relative QH ratio after storage, and oxidizing rate were calculated.
• Column: AS12S05-1546WT (manufactured by YMC Co., Ltd.) 150 mm (in length) and 4.6 mm (in inner diameter) • Mobile phase: C2H3N: CH3OH=1:9 (v:v) • Detection wavelength: 290 nm • Flow rate: 1 ml/min
The “QH ratio” means the ratio of the amount of the reduced coenzyme Q10 to the total amount of the coenzyme Q10 present in the crystal, and is calculated in accordance with the following formula.
The “relative QH ratio after storage” is a value obtained by relativizing the QH ratio after storage on the basis of each of the QH ratios measured before the start of storage and after storage, assuming that the QH ratio before storage is 100. The relative QH ratio after storage is calculated in accordance with the following formula.
The “oxidizing rate” is a value obtained by dividing a change (amount of decrease) in the relative QH ratio in the period of storage by the number of days of storage, and is calculated in accordance with the following formula.

[1] = crystal stored at 40° C. and 75% RH for 28 days

SMILES	Relative QH ratio (crystal stored at 40° C. and 75% RH for 29 days)	Oxidizing rate [%/day]	Relative QH ratio [1]
COc1c(O)c(C)c(C/C=C(\C)CC/C=C(\C)CC/C=C(\C)CC/C=C(\C)CC/C=C(\C)CC/C=C(\C)CC/C=C(\C)CC/C=C(\C)CC/C=C(\C)CCC=C(C)C)c(O)c1OC [Comparative Example 1, reduced coenzyme Q10]	86.1 (when stored %	0.48	–
COc1c(O)c(C)c(C/C=C(\C)CC/C=C(\C)CC/C=C(\C)CC/C=C(\C)CC/C=C(\C)CC/C=C(\C)CC/C=C(\C)CC/C=C(\C)CC/C=C(\C)CCC=C(C)C)c(O)c1OC [Comparative Example 2, reduced coenzyme Q10]	–	0.42	88.2 (when stored %
COc1c(O)c(C)c(C/C=C(\C)CC/C=C(\C)CC/C=C(\C)CC/C=C(\C)CC/C=C(\C)CC/C=C(\C)CC/C=C(\C)CC/C=C(\C)CC/C=C(\C)CCC=C(C)C)c(O)c1OC [Example 1, reduced coenzyme Q10]	–	0.30	91.6 (when stored %
COc1c(O)c(C)c(C/C=C(\C)CC/C=C(\C)CC/C=C(\C)CC/C=C(\C)CC/C=C(\C)CC/C=C(\C)CC/C=C(\C)CC/C=C(\C)CC/C=C(\C)CCC=C(C)C)c(O)c1OC [Example 2, reduced coenzyme Q10]	–	0.26	92.6 (when stored %
COc1c(O)c(C)c(C/C=C(\C)CC/C=C(\C)CC/C=C(\C)CC/C=C(\C)CC/C=C(\C)CC/C=C(\C)CC/C=C(\C)CC/C=C(\C)CC/C=C(\C)CCC=C(C)C)c(O)c1OC [Example 3, reduced coenzyme Q10]	–	0.23	93.5 (when stored %

— patent US20260008739A1, “CRYSTAL AND FORMULATION OF REDUCED COENZYME Q10” (KANEKA CORPORATION, priority 2023, published 2026)
